The text below walks through data of article PMC9865752, “Design and Synthesis of (Z)-2-(Benzylamino)-5-benzylidenethiazol-4(5H)-one Derivatives as Tyrosinase Inhibitors and Their Anti-Melanogenic and Antioxidant Effects” (Molecules, 2023).

Assay [1] has as its system mushroom tyrosinase. The assay is described as follows: Mushroom tyrosinase inhibition assay. It counts as biochemical. Conditions: for IC50: mean ± SEM of three experiments. On the procedure:
As mushroom tyrosinase is commercially available and relatively cheap, it is used as a tool for the identification of novel tyrosinase inhibitors. Here, we examined the tyrosinase inhibitory activities of the 14 BABT derivatives against mushroom tyrosinase in the presence of L-tyrosine or L-dopa as substrates.
Mushroom tyrosinase inhibitory activities of BABT derivatives were determined as described previously, with minor modifications. L-Tyrosine and L-dopa were used as substrates to evaluate the enzyme activity. […] Assay mixtures were incubated at 37 °C for 30 min, and dopachrome amounts synthesized were determined by measuring the optical density of each well at 475 nm using a microplate reader (VersaMax; Molecular Devices, Sunnyvale, CA, USA).

The nature of assay [2]: SIN-1-induced ROS scavenging assay. The note with it: 20 µM; SIN-1 as ROS generator; DCFH-DA probe. The source says: The scavenging activities of the BABT derivatives 1–14 against ROS and peroxynitrite (ONOO^−) were investigated because the antioxidant activities of the compounds may modulate melanogenesis. To measure the ROS scavenging activities of BABT derivatives, 2′,7′-dichlorodihydrofluorescein diacetate (DCFH-DA) and 3-morpholinosydnonimine (SIN-1) were used as a fluorogenic probe and ROS generator, respectively. The reaction of DCFH-DA with esterase produces 2′,7′-dichlorodihydrofluorescein (DCFH), which generates the fluorescent compound 2′,7′-dichlorofluorescein (DCF) by reacting with ROS produced by SIN-1. Therefore, ROS scavenging activities were determined by measuring the DCF fluorescence remaining after the BABT derivatives scavenged the ROS generated by SIN-1. […] BABT derivatives and Trolox, the positive control, were used at a concentration of 20 µM.
The ROS scavenging activities of the BABT derivatives were measured using an oxidant-sensitive fluorescent probe. Derivatives or Trolox (10 µL; final concentration: 20 µM) were seeded in a black 96-well plate. Then, 10 µL of SIN-1 (10 µM) was added to induce radical species generation and mixed with 180 µL of sodium phosphate buffer (pH 7.4) containing 12.5 µM DCF-DA and 600 units of esterase. Fluorescence intensity was measured at emission and excitation wavelengths of 535 and 485 nm, respectively, using a fluorescence microplate reader (Berthold Technologies GmbH & Co., Wien, Austria). Trolox was used as the positive control.

A short description of assay [3]: Peroxynitrite scavenging assay. Conditions: 20 µM; SIN-1 as generator; DHR123 probe. The protocol: The effects of the BABT derivatives on peroxynitrite scavenging activities were also examined using SIN-1 as an RNS generator and dihydrorhodamine (DHR123) as an ROS indicator. DHR123 was converted to fluorescent rhodamine 123 by peroxynitrite generated by SIN-1. Therefore, the peroxynitrite scavenging activities of 1–14 were assessed by measuring the fluorescence of rhodamine 123. BABT derivatives and penicillamine, the positive control, were used at a concentration of 20 µM.
The peroxynitrite scavenging activities of the BABT derivatives were assessed using the method developed by Kooy, involving the monitoring of highly fluorescent rhodamine 123, which was rapidly produced from non-fluorescent DHR123 in the presence of peroxynitrite. Rhodamine buffer (pH 7.4) was composed of 50 mM sodium phosphate dibasic, 50 mM sodium phosphate monobasic, 90 mM sodium chloride, 5 mM potassium chloride, and 100 µM DTPA. A 10 µL aliquot of BABT derivatives or PCA (final concentration: 20 µM) was seeded in a black 96-well plate. Then, 10 µL of SIN-1 (10 µM) was added to induce radical species generation and mixed with 180 µL of rhodamine buffer. Fluorescence intensity was measured at emission and excitation wavelengths of 535 and 485 nm, respectively, using a fluorescence microplate reader (Berthold Technologies GmbH & Co.). PCA was used as the positive control.

The nature of assay [4]: DPPH radical scavenging assay. Conditions: test samples 500 µM; DPPH 0.18 mM; 30 min in the dark. On the procedure:
DPPH is a light-sensitive compound containing free radicals. The DPPH assay is one of the most common methods for evaluating the antioxidant activity of a compound. The effects of BABT derivatives on DPPH radical scavenging activities were evaluated using L-ascorbic acid as a positive reference control. DPPH radical scavenging activities were measured after leaving the mixed samples (test samples of 500 µM plus DPPH solution of 0.18 mM) in the dark for 30 min. To determine the radical scavenging activities, the absorbance of the mixed samples was measured at 517 nm.
According to previously described methods, with minor modifications, the DPPH radical scavenging activities of BABT derivatives 1–14 were measured. A DPPH (0.2 mM) and methanol solution (180 µL) was mixed with 20 µL of a DMSO solution containing 5 mM BABT derivative, or with 20 µL of an aqueous solution of 5 mM L-ascorbic acid, in each well of a 96-well plate and kept at ambient temperature in the dark for 30 min. The optical density of each well was measured at 517 nm using a microplate reader (VersaMax; Molecular Devices). L-Ascorbic acid was used as a positive reference control, and the DPPH radical scavenging abilities of BABT derivatives were compared with those of L-ascorbic acid. All experiments were performed independently, thrice.
For orientation: DPPH is a stable violet radical that fades when it is reduced.

In assay [5] the test system is B16F10 cells. The assay is described as follows: Measurement of extracellular and intracellular melanin levels. Format: cell-based, murine. Conditions: 20 µM; α-MSH plus IBMX stimulated B16F10 cells; 72 h. The protocol: To investigate the effects of derivative 8 on extracellular and intracellular melanin levels in B16F10 cells, the cells were treated with various concentrations (5, 10, and 20 µM) of derivative 8 for 1 h, in addition to co-treatment with α-MSH (0.5 µM) and 3-isobutyl-1-methylxanthine (IBMX; 200 µM) to enhance melanin biosynthesis in B16F10 cells. After 72 h of incubation, the effects of 8 on extracellular and intracellular melanin levels were determined by measuring the melanin absorbance in the culture media and cell lysates, respectively, at 405 nm using a microplate reader.
The effect of 8 on melanin production was measured using a standard melanin content assay, with minor modifications. Briefly, B16F10 cells were seeded at a density of 1 × 10^5 cells per well and allowed to adhere to the well bottoms for 24 h under the conditions used for cell cultures. […] After incubation for 72 h at 37 °C in a 5% CO2 atmosphere, melanin levels were determined. To measure the extracellular melanin levels, the absorbance of each well of the culture medium was measured at 405 nm. […] Cultured cells were washed twice with PBS, and the pellets obtained were dissolved using 1 N NaOH solution (200 µL, 10% DMSO) at 60 °C for 1 h. Cell lysates were transferred to the wells of a 96-well plate, and the optical density of melanin dissolved in each well was measured at 405 nm in aqueous DMSO solution using a microplate reader (VersaMax; Molecular Devices).

The mark [6] stands for this setting: substrate L-dopa, read-out: IC50 (µM) L-Dopa.
The mark [7] stands for this setting: substrate L-tyrosine, read-out: IC50 (µM) L-Tyrosine.

Read-outs that look alike come from different tables or passages of the source.

By IC50 is commonly meant the midpoint of a concentration-inhibition curve. With `O=C1N=C(NCc2ccccc2)S/C1=C\c1ccc(O)cc1` [Compound 1, (Z)-2-(benzylamino)-5-(4-hydroxybenzylidene)thiazol-4(5H)-one], the “fold higher IC50 value with L-dopa than with L-tyrosine” value in assay [1] (L-dopa versus L-tyrosine as substrate) came out at 2 fold. The IC50 in assay [1] (setting [6]) turned out to be 65.1 ± 8.29 µM; in assay [1] (setting [7]), 27.5 ± 2.93 µM. For the same molecule, the “ROS scavenging activity (in words)” value in assay [2] is listed as “strongly reduced the ROS levels enhanced by SIN-1”. The “peroxynitrite scavenging activity (in words)” value in assay [3] was “strong ROS and peroxynitrite scavenging activities”.
For the molecule `COc1ccc(/C=C2\SC(NCc3ccccc3)=NC2=O)cc1` [Compound 2, (Z)-2-(benzylamino)-5-(4-methoxybenzylidene)thiazol-4(5H)-one], in assay [1] (substrate L-dopa), the “fold decrease of tyrosinase inhibitory activity versus derivative 1” value was 3.7 fold. The figures for the half-maximal inhibitory concentration (IC50) in assay [1] (setting [6]) and in assay [1] (setting [7]) were 239.4 ± 2.38 µM and 126 ± 10 µM, respectively. For the same molecule, in assay [1] (substrate L-tyrosine), the “fold lower tyrosinase inhibitory activity than derivative 1” value is listed as 4.6 fold. In assay [2], the “ROS scavenging activity (in words)” value is reported as “strongly reduced the ROS levels enhanced by SIN-1”.
For `O=C1N=C(NCc2ccccc2)S/C1=C\c1ccc(F)cc1F` [Compound 3, (Z)-2-(benzylamino)-5-(2,4-difluorobenzylidene)thiazol-4(5H)-one], the half-inhibitory concentration (IC50) in assay [1] (setting [6]) and in assay [1] (setting [7]) was over 300 µM throughout. Besides, the “ROS scavenging activity (in words)” value in assay [2] was “moderate ROS scavenging activities”.
As to `O=C1N=C(NCc2ccccc2)S/C1=C\c1ccc(F)c(F)c1` [Compound 4, (Z)-2-(benzylamino)-5-(3,4-difluorobenzylidene)thiazol-4(5H)-one], the figures for the IC50 in assay [1] (setting [6]) and in assay [1] (setting [7]) were over 300 µM and 289 ± 14.7 µM, respectively. The “ROS scavenging activity (in words)” value in assay [2] is on record as “moderate ROS scavenging activities”.
Taken in the same sequence, the figures for `COc1cc(/C=C2\SC(NCc3ccccc3)=NC2=O)ccc1O` [Compound 5, (Z)-2-(benzylamino)-5-(4-hydroxy-3-methoxybenzylidene)thiazol-4(5H)-one] were over 300 µM, 148.3 ± 1.12 µM and “moderate ROS scavenging activities”.
As to `CCOc1cc(/C=C2\SC(NCc3ccccc3)=NC2=O)ccc1O` [Compound 6, (Z)-2-(benzylamino)-5-(3-ethoxy-4-hydroxybenzylidene)thiazol-4(5H)-one], the IC50 in assay [1] (setting [6]) is 248 ± 11.5 µM; in assay [1] (setting [7]), 199 ± 8.57 µM.
As to `COc1ccc(/C=C2\SC(NCc3ccccc3)=NC2=O)c(OC)c1` [Compound 10, (Z)-2-(benzylamino)-5-(2,4-dimethoxybenzylidene)thiazol-4(5H)-one], the IC50 in assay [1] (setting [6]) turned out to be 214 ± 6.29 µM; in assay [1] (setting [7]) it was 293 ± 13.1 µM. The “mushroom tyrosinase inhibitory activity (in words)” value in assay [1] (substrate L-tyrosine) was “little-to-no mushroom tyrosinase inhibitory activity”.
Taken in the same sequence, the figures for `COc1ccc(/C=C2\SC(NCc3ccccc3)=NC2=O)cc1OC` [Compound 11, (Z)-2-(benzylamino)-5-(3,4-dimethoxybenzylidene)thiazol-4(5H)-one] were over 300 µM, over 300 µM and “little-to-no mushroom tyrosinase inhibitory activity”.
As to `COc1cc(/C=C2\SC(NCc3ccccc3)=NC2=O)cc(OC)c1O` [Compound 12, (Z)-2-(benzylamino)-5-(4-hydroxy-3,5-dimethoxybenzylidene)thiazol-4(5H)-one], the IC50 was over 300 µM in assay [1] (setting [6]) and 166 ± 8.04 µM in assay [1] (setting [7]). Besides, in assay [4], the “DPPH radical scavenging activity, % inhibition” value came out at 62%.
`CC(C)(C)c1cc(/C=C2\SC(NCc3ccccc3)=NC2=O)cc(C(C)(C)C)c1O` [Compound 13, (Z)-2-(benzylamino)-5-(3,5-di-tert-butyl-4-hydroxybenzylidene)thiazol-4(5H)-one]: the IC50 is over 300 µM in assay [1] (setting [6]) and 137 ± 10.7 µM in assay [1] (setting [7]).
With `COc1cc(/C=C2\SC(NCc3ccccc3)=NC2=O)cc(OC)c1OC` [Compound 14, (Z)-2-(benzylamino)-5-(3,4,5-trimethoxybenzylidene)thiazol-4(5H)-one], the IC50 was 231 ± 7.43 µM in assay [1] (setting [6]) and 192 ± 9.04 µM in assay [1] (setting [7]). Further, the “mushroom tyrosinase inhibitory activity (in words)” value in assay [1] (substrate L-tyrosine) is “little-to-no mushroom tyrosinase inhibitory activity”.
In the case of `O=C1O[C@H]([C@@H](O)CO)C(O)=C1O` [L-Ascorbic acid, L-ascorbic acid, reference compound], in assay [4], the “DPPH radical scavenging activity, % inhibition” value is given as 97%.
On to `O=c1cc(CO)occ1O` [kojic acid, Kojic acid, reference compound], for which, in assay [5], the “extracellular melanin levels compared to untreated control” value is 1.5 fold and the “intracellular melanin levels compared to untreated control” value is reported as 1.9 fold.
In the case of `CC(C)(S)[C@@H](N)C(=O)O` [penicillamine, reference compound], the “peroxynitrite scavenging activity (in words)” value in assay [3] is “significantly reduced the peroxynitrite levels increased by SIN-1 treatment”.
